Experimental data as given in ChEMBL document CHEMBL3046677, “Diastereoselective synthesis of the model insect antifeedants related to azadiradione and epoxyazadiradione based on intramolecular insertion of -aryl--diazoketones” (1998).

What follows are compounds tested on Spodoptera frugiperda (assay: Antifeedant activity against Spodoptera frugiperda (fall armyworm) assessed as antifeedant index at 100 ppm).
Type: functional
Work on `C[C@@H]1CCC[C@@]2(C)[C@H](c3ccoc3)C(=O)[C@H]3O[C@]132` (racemic) yielded an AFI of 29%. `O=C1[C@H]2O[C@]23CCCC[C@H]3[C@@H]1c1ccsc1` (racemic) was tested, and the AFI was 36%. For `O=C1[C@H]2O[C@]23CCCC[C@H]3[C@@H]1c1ccccc1` (racemic), the AFI was -12%. In the case of `O=C1C=C2CCCC[C@H]2[C@@H]1c1ccccc1` (racemic), the AFI is reported as 40%. Compound `O=C1C=C2CCCC[C@H]2[C@@H]1c1ccsc1` (racemic) has an AFI of 1%. For `O=C1C=C2CCCC[C@H]2[C@@H]1c1ccoc1` (racemic), the AFI was 42%.

What follows are compounds tested on Spodoptera littoralis (assay: Antifeedant activity against Spodoptera littoralis assessed as antifeedant index at 100 ppm).
Type: functional
Work on `CC1(C)CCC[C@]2(C)C1=CC(=O)[C@H]2c1ccoc1` (racemic) yielded an AFI of 16%. In the case of `CC1(C)CCC[C@@]2(C)[C@H](c3ccoc3)C(=O)[C@H]3O[C@@]312` (racemic), the AFI is reported as 28%. Compound `CC1(C)CCC[C@@]2(C)[C@H](c3ccoc3)C(=O)[C@H]3O[C@@]312` (stereo in doubt; (+)) has an AFI of 55%. Work on `CC1(C)CCC[C@@]2(C)[C@H](c3ccoc3)C(=O)[C@H]3O[C@@]312` (stereo in doubt; (-)) yielded an AFI of 32%. For `CC(=O)O[C@@H]1C[C@H]2C(C)(C)C(=O)C=C[C@]2(C)[C@H]2CC[C@]3(C)C(=CC(=O)[C@H]3c3ccoc3)[C@@]21C` [AZADIRADIONE], the AFI was 1%. In the case of `CC(=O)O[C@@H]1C[C@H]2C(C)(C)C(=O)C=C[C@]2(C)[C@H]2CC[C@@]3(C)[C@H](c4ccoc4)C(=O)[C@H]4O[C@]43[C@@]21C` [EPOXYAZADIRADIONE], the AFI is reported as 22%.
